Experimental data published in patent publication US8273776B2, “Biphenyl oxadiazole derivatives as sphingosine-1-phosphate receptors modulators” (Allergan, Inc, priority 2010, dated 2012).

Target: T1, human S1P1 receptor (Homo sapiens, UniProt P21453)
T1 construct: expressed in transfected cells; membranes used
Assay: GTP γ35S binding assay for S1P1 activity
Assay type: biochemical
Settings: for % S1P1 STIMULATION @ 5 μM (%): GTPγ^35S binding, compound at 5 μM; for EC50: membranes of cells stably expressing the S1P1 receptor, test compounds 0.08 to 5,000 nM, read-out: S1P1 GTPγ^35S EC50
Protocol: Compounds were synthesized and tested for S1P1 activity using the GTP γ^35S binding assay. These compounds may be assessed for their ability to activate or block activation of the human S1P1 receptor in cells stably expressing the S1P1 receptor.
GTP γ^35S binding was measured in the medium containing (mM) HEPES 25, pH 7.4, MgCl2 10, NaCl 100, dithitothreitol 0.5, digitonin 0.003%, 0.2 nM GTP γ^35S, and 5 μg membrane protein in a volume of 150 μl. Test compounds were included in the concentration range from 0.08 to 5,000 nM unless indicated otherwise. Membranes were incubated with 100 μM 5′-adenylylimmidodiphosphate for 30 min, and subsequently with 10 μM GDP for 10 min on ice. Drug solutions and membrane were mixed, and then reactions were initiated by adding GTP γ^35S and continued for 30 min at 25° C. Reaction mixtures were filtered over Whatman GF/B filters under vacuum, and washed three times with 3 mL of ice-cold buffer (HEPES 25, pH7.4, MgCl2 10 and NaCl 100). Filters were dried and mixed with scintillant, and counted for ^35S activity using a β-counter. Agonist-induced GTP γ^35S binding was obtained by subtracting that in the absence of agonist. Binding data were analyzed using a non-linear regression method. In case of antagonist assay, the reaction mixture contained 10 nM S1P in the presence of test antagonist at concentrations ranging from 0.08 to 5000 nM.

T1 sequence (P21453 whole entry): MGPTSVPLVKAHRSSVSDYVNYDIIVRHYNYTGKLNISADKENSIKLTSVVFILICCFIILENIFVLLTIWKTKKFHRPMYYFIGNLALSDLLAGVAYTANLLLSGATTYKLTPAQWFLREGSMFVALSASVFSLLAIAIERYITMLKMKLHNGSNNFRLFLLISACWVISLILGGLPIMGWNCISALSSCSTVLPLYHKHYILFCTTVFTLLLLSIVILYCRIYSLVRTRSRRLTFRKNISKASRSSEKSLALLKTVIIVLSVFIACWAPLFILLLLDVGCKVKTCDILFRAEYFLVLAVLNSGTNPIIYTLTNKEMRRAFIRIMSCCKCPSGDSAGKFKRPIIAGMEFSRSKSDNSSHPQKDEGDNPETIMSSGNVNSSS

Structure (SMILES)	% S1P1 STIMULATION @ 5 μM (%)	EC50
CC(C)Oc1ccc(-c2nc(-c3ccccc3-c3cccc(OCCCO)c3)no2)cc1C#N [Compound 1, 5-{3-[3′-(3-Hydroxy-propoxy)-biphenyl-2-yl]-[1,2,4]oxadiazol-5-yl}-2-isopropoxy-benzonitrile]	76%	1420 nM
O=C(O)CNCCCOc1cccc(-c2ccccc2-c2noc(-c3ccc(-c4cccc(F)c4)c(C(F)(F)F)c3)n2)c1 [Compound 2, (3-{2′-[5-(3′-Fluoro-2-trifluoromethyl-biphenyl-4-yl)-[1,2,4]oxadiazol-3-yl]-biphenyl-3-yloxy}-propylamino)acetic acid]	96%	552 nM
CC(C)Oc1ccc(-c2nc(-c3ccccc3-c3cccc(OCCCNCC(=O)O)c3)no2)cc1C#N [Compound 3, (3-{2′-[5-(3-Cyano-4-isopropoxy-phenyl)-[1,2,4]oxadiazol-3-yl]-biphenyl-3-yloxy}-propylamino)-acetic acid]	85%	82 nM
